The text below walks through data of patent US4914191A, “Anthracycline derivatives having cytostatic activity” (Behringwerke Aktiengesellschaft, priority 1987, dated 1990).

Data set [1] has as its system L1210 mouse leukemia cells. Put plainly: formation of colonies of L1210 leukemia cells in soft agar. Format: cell-based. To be noted: Mus musculus. How it is done: The cytostatic activity of the compounds according to the invention was tested using L1210 mouse leukemia cells. This made use of the formation of colonies of L1210 leukemia cells in agar plates. This method is used to detect the effect of the test substances on the growth behavior of the cells over 1 hour or over several generations. With a cell cycle lasting 10-12 hours, this means that about 14 consecutive generations are observed in a test lasting 7 days. In this test, the substances having cytostatic activity according to the invention bring about a reduction in the number of colonies to be observed by comparison with an untreated control sample.
500 leukemia cells per plate were incubated with various concentrations of the test substance at 37° C. for 1 hour. These cells were then washed twice with McCoy5A medium and finally, after addition of 0.3% agar, poured into Petri dishes. Controls were incubated only with fresh medium. In some cases, in place of the incubation for one hour, various concentrations of test substances were mixed with the upper agar layer in order in this way to achieve continuous exposure of the cells throughout the incubation time. After the agar had solidified, the plates were incubated at 37° C. in an incubator for 7 days (5% by vol. CO2, 95% relative humidity). The number of colonies with a diameter of more than 60 μm which had formed was then counted. The results have been given as the number of colonies in treated agar plates as a percentage of the untreated control. The IC50 was determined, as a measure of the activity of the substance, from the dose-effect plot obtained in this way.

A short description of data set [2]: approximative toxicity, intraperitoneal (LD50). The conditions noted are these: in vivo, ip. The source says:
*3xip,q3d: three intraperitoneal administrations with an interval of thre
1xip: one intraperitoneal administration

Data set [3] relates to L1210 leukemia cells. Put plainly: cross-resistance in vitro, MTT assay on sensitive and adriamycin (doxorubicin)-resistant L1210 leukemia cells. It is filed as cell-based, mouse. To be noted: 3d incubation; for Degree of resistance of the cell: IC50 resistant subline relative to IC50 sensitive line. How it is done:
L1210, A 549 or HT 29 in the exponential phase of growth are incubated in a cell density of 5×10^3 cells/ml in RPMI 1640 in a 96-well microtiter plate for 72 hours with various concentrations of the test substance at 37° C., 5% CO2 and 95% relative humidity. Control experiments contain merely growth medium in place of the test substance. Each test substance and the control are determined in quadruplicate. After incubation for 65 hours, 50 μl of MTT solution (2.5 mg/ml in phosphate-buffered saline) are added. In the presence of live cells, MTT is reduced to a dark-red insoluble formazan dyestuff. This reaction is complete after 7 hours (L1210 cells) or after 24 hours (A 549, HT 29 cells), and the supernatant medium is carefully removed by aspiration. The insoluble dyestuff is dissolved by addition of 100 μl of DMSO, and the extinction of the resulting solution at a wavelength of 492 nm is then measured for each well in a Flow 340 CC multiscan photometer.
The ratio of the extinctions of treated and untreated cells yields a dose-effect plot from which the concentration which just kills 50% of the cells (IC50) can be read off. The coefficient of variation for repeat tests is less than 15%.
The cross-resistance between the particular test compound and doxorubicin is determined using the MTT assay (for method, see above) on sensitive and resistant L1210 leukemia cells.
The resistant cell line was established by incubation of a sensitive subline with stepwise increasing concentrations of the reference compound.
The IC50 of the test compound on the resistant subline relative to the IC50 of the sensitive subline yields the degree of resistance both for the test compound (DR(T)) and for the reference compound (DR(R)) in accordance with the formula [formula]
In addition, the degree of cross-resistance (DCR) for the test compound is calculated in accordance with the formula [formula]
In the case where the loss of activity of the test compound on the resistant line related to the sensitive line is greater than that of the reference compound, a degree of cross-resistance of more than 100% is possible.
A general note: Formazan colour is commonly taken as a measure of viable cells.

[4] abbreviates: 168 h, continuous exposure, 7 days, L1210 colony formation, read-out: Long-term incubation IC50.
Where [5] appears, read: 1 h incubation, then 7 days colony formation, L1210, read-out: 1 h Incubation IC50.

Structures are written as SMILES. Converted amounts (≈) assume the structure as drawn. Like-named read-outs stand apart in the source and are kept apart here.

On to `CC[C@@]1(O)C[C@H](O[C@H]2C[C@H](N(C)C)[C@H](OC(=O)c3ccc(OC)cc3)[C@H](C)O2)c2c(O)c3c(c(O)c2[C@H]1O[C@H]1C[C@H](N(C)C)[C@H](O)[C@H](C)O1)C(=O)c1cccc(O)c1C3=O` [Compound 12a, 7-O-[(4'-O-p-methoxybenzoyl)-α-L-rhodosaminyl]-10-O-α-L-rhodosaminyl-β-rhodomycinone], for which the IC50 (in general, the concentration needed to halve the response being measured) in data set [1] (setting [4]) is 0.0085 µg/mL (≈ 0.0102 µM); in data set [1] (setting [5]), 0.13 µg/mL (≈ 0.156 µM). Moreover, the LD50 (usually the dose expected to kill half of the subjects tested) in data set [2] (three intraperitoneal administrations with an interval of three days between each, read-out: Approximative toxicity LD50, 3xip, q3d) was in the range of 10 to 15 mg/kg. Also, the “Degree of cross-resistance to adriamycin” value in data set [3] is 1.3%. Also, the “Degree of resistance of the cell” value in data set [3] is reported as 0.75.
As to `CC[C@@]1(O)C[C@H](O[C@H]2C[C@H](N(C)C)[C@H](OC(C)=O)[C@H](C)O2)c2c(O)c3c(c(O)c2[C@H]1O[C@H]1C[C@H](N(C)C)[C@H](OC(C)=O)[C@H](C)O1)C(=O)c1cccc(O)c1C3=O` [Compound 9, 7,10-O-Bis-(4'-O-acetyl-α-L-rhodosaminyl)-β-rhodomycinone], in data set [1] (setting [4]), the IC50 was 0.026 µg/mL (≈ 0.0331 µM). For the same compound, the IC50 in data set [1] (setting [5]) is 0.06 µg/mL (≈ 0.0764 µM). For the same compound, the LD50 in data set [2] (one intraperitoneal administration, read-out: Approximative toxicity LD50, 1xip) was in the range of 3.4 to 6.5 mg/kg. In addition, in data set [3], the “Degree of cross-resistance to adriamycin” value is given as 6.0% and the “Degree of resistance of the cell” value was 6.0.
